Assay results from patent US8952024B2, “Herbicidal pyrimidone derivatives” (E I du Pont de Nemours and Company, priority 2009, dated 2015).

Legend:
Type in all cases: in vivo
[1] = test system: barnyardgrass (Echinochloa crus-galli); test: Test A pre-/postemergence plant response
From the text: (§1) Seeds of barnyardgrass (Echinochloa crus-galli), large crabgrass (Digitaria sanguinalis), giant foxtail (Setaria faberii), morningglory (Ipomoea spp.), pigweed (Amaranthus retroflexus), velvetleaf (Abutilon theophrasti), wheat (Triticum aestivum) and corn (Zea mays) were planted into a blend of loam soil and sand and treated preemergence with a directed soil spray using test chemicals formulated in a non-phytotoxic solvent mixture which included a surfactant. At the same time these species were also treated with postemergence applications of test compounds formulated in the same manner.
(§2) Plants ranged in height from two to ten cm and were in the one- to two-leaf stage for the postemergence treatment. Treated plants and untreated controls were maintained in a greenhouse for approximately ten days, after which time all treated plants were compared to untreated controls and visually evaluated for injury. Plant response ratings, summarized in Table A, are based on a 0 to 100 scale where 0 is no effect and 100 is complete control. A dash (-) response means no test result.

corn (Zea mays) = test: Test A pre-/postemergence plant response
From the text: as §1, §2

[2] = test system: giant foxtail (Setaria faberii); test: Test A pre-/postemergence plant response
From the text: as §1, §2

[3] = test system: large crabgrass (Digitaria sanguinalis); test: Test A pre-/postemergence plant response
From the text: as §1, §2

[4] = test system: morningglory (Ipomoea spp.); test: Test A pre-/postemergence plant response
From the text: as §1, §2

[5] = test system: pigweed (Amaranthus retroflexus); test: Test A pre-/postemergence plant response
From the text: as §1, §2

[6] = test system: velvetleaf (Abutilon theophrasti); test: Test A pre-/postemergence plant response
From the text: as §1, §2

[7] = test system: wheat (Triticum aestivum); test: Test A pre-/postemergence plant response
From the text: as §1, §2

[8] = test system: barnyardgrass (Echinochloa crus-galli); test: Test B flooded paddy test; conditions: for Plant response rating, Flood, Barnyardgrass: 250 g ai/ha, flooded paddy test, visual rating on 0 to 100 scale (0 no effect, 100 complete control) after 13 to 15 days; for Plant response rating, Barnyardgrass: Flood (flooded paddy test), 13 to 15 days
From the text: (§3) Plant species in the flooded paddy test consisted of rice (Oryza sativa), umbrella sedge (Cyperus difformis), ducksalad (Heteranthera limosa) and barnyardgrass (Echinochloa crus-galli) grown to the 2-leaf stage for testing. At the time of treatment, test pots were flooded with water to 3 cm above the soil surface, treated by application of test compounds directly to the paddy water, and then maintained at that water depth for the duration of the test.
(§4) Treated plants and controls were maintained in a greenhouse for 13 to 15 days, after which time all treated plants were visually evaluated and compared to controls. Plant response ratings, summarized in Table B, are based on a scale of 0 to 100 where 0 is no effect and 100 is complete control. A dash (-) response means no test result.

[9] = test system: ducksalad (Heteranthera limosa); test: Test B flooded paddy test; conditions: for Plant response rating, Flood, Ducksalad: 250 g ai/ha, flooded paddy test, visual rating on 0 to 100 scale (0 no effect, 100 complete control) after 13 to 15 days; for Plant response rating, Ducksalad: Flood (flooded paddy test), 13 to 15 days
From the text: as §3, §4

rice (Oryza sativa) = test: Test B flooded paddy test; conditions: for Plant response rating, Flood, Rice: 250 g ai/ha, flooded paddy test, visual rating on 0 to 100 scale (0 no effect, 100 complete control) after 13 to 15 days; for Plant response rating, Rice: Flood (flooded paddy test), 13 to 15 days
From the text: as §3, §4

[10] = test system: umbrella sedge (Cyperus difformis); test: Test B flooded paddy test; conditions: for Plant response rating, Flood, Sedge, Umbrella: 250 g ai/ha, flooded paddy test, visual rating on 0 to 100 scale (0 no effect, 100 complete control) after 13 to 15 days; for Plant response rating, Sedge, Umbrella: Flood (flooded paddy test), 13 to 15 days
From the text: as §3, §4

[11] = Postemergence, 125 g ai/ha, visual injury, 0 to 100 scale (0 no effect, 100 complete control), approx. ten days
[12] = Postemergence, 500 g ai/ha, 0 to 100 scale, 0 = no effect, 100 = complete control, approx. ten days
[13] = Preemergence, 125 g ai/ha, 0 to 100 scale, 0 = no effect, 100 = complete control
[14] = Preemergence, 500 g ai/ha, visual injury, 0 to 100 scale (0 no effect, 100 complete control), approx. ten days
[15] = 31 g ai/ha, scale of 0 to 100 where 0 is no effect and 100 is complete control
[16] = 62 g ai/ha, scale 0 to 100, 0 is no effect, 100 is complete control
[17] = 125 g ai/ha, scale 0 to 100, 0 is no effect, 100 is complete control

O=C1CCCC(O)=C1C(=O)c1cnc(-c2ccccc2)n(-c2cccc(F)c2)c1=O [Compound 22]
20: Plant response rating, Foxtail, Giant [2, 13] | Plant response rating, Morningglory [4, 13] | Plant response rating, Ducksalad [9, 16]
90: Plant response rating, Crabgrass, Large [3, 14] | Plant response rating, Pigweed [5, 14]
80: Plant response rating, Foxtail, Giant [2, 12] | Plant response rating, Foxtail, Giant [2, 14] | Plant response rating, Crabgrass, Large [3, 12] | Pigweed plant response rating [5, 11]
30: Foxtail, Giant plant response rating [2, 11] | Morningglory plant response rating [4, 11] | Plant response rating, Velvetleaf [6, 13] | Plant response rating, Ducksalad [9, 17] | Plant response rating, Sedge, Umbrella [10, 16]
10: Barnyardgrass plant response rating [1, 11] | Plant response rating, Barnyardgrass [1, 13]
70: Plant response rating, Barnyardgrass [1, 12] | Plant response rating, Morningglory [4, 14] | Plant response rating, Pigweed [5, 13]
100: Plant response rating, Barnyardgrass [1, 14] | Plant response rating, Morningglory [4, 12] | Plant response rating, Pigweed [5, 12] | Velvetleaf plant response rating [6, 11] | Plant response rating, Velvetleaf [6, 12] | Plant response rating, Velvetleaf [6, 14]
65: Plant response rating, Flood, Sedge, Umbrella [10]
40: Plant response rating, Corn (corn (Zea mays); [12]) | Crabgrass, Large plant response rating [3, 11] | Plant response rating, Crabgrass, Large [3, 13] | Plant response rating, Sedge, Umbrella [10, 17]
0: Corn plant response rating (corn (Zea mays); [11]) | Plant response rating, Corn (corn (Zea mays); [13]) | Plant response rating, Corn (corn (Zea mays); [14]) | Wheat plant response rating [7, 11] | Plant response rating, Wheat [7, 12] | Plant response rating, Wheat [7, 13] | Plant response rating, Wheat [7, 14] | Plant response rating, Flood, Barnyardgrass [8] | Plant response rating, Barnyardgrass [8, 15] | Plant response rating, Barnyardgrass [8, 16] | Plant response rating, Barnyardgrass [8, 17] | Plant response rating, Ducksalad [9, 15] | Plant response rating, Flood, Rice (rice (Oryza sativa)) | Plant response rating, Rice (rice (Oryza sativa); [15]) | Plant response rating, Rice (rice (Oryza sativa); [16]) | Plant response rating, Rice (rice (Oryza sativa); [17]) | Plant response rating, Sedge, Umbrella [10, 15]
60: Plant response rating, Flood, Ducksalad [9]

C=CCn1c(-c2ccccc2)ncc(C(=O)C2=C(O)CCCC2=O)c1=O [Compound 23]
80: Pigweed plant response rating [5, 11]
40: Plant response rating, Velvetleaf [6, 13] | Plant response rating, Sedge, Umbrella [10, 17]
50: Plant response rating, Foxtail, Giant [2, 12] | Morningglory plant response rating [4, 11] | Plant response rating, Pigweed [5, 13]
0: Plant response rating, Barnyardgrass [1, 13] | Corn plant response rating (corn (Zea mays); [11]) | Plant response rating, Corn (corn (Zea mays); [12]) | Plant response rating, Corn (corn (Zea mays); [13]) | Plant response rating, Corn (corn (Zea mays); [14]) | Plant response rating, Foxtail, Giant [2, 13] | Plant response rating, Morningglory [4, 13] | Wheat plant response rating [7, 11] | Plant response rating, Wheat [7, 12] | Plant response rating, Wheat [7, 13] | Plant response rating, Wheat [7, 14] | Plant response rating, Flood, Barnyardgrass [8] | Plant response rating, Barnyardgrass [8, 15] | Plant response rating, Barnyardgrass [8, 16] | Plant response rating, Barnyardgrass [8, 17] | Plant response rating, Rice (rice (Oryza sativa); [15]) | Plant response rating, Rice (rice (Oryza sativa); [16]) | Plant response rating, Rice (rice (Oryza sativa); [17])
15: Plant response rating, Flood, Rice (rice (Oryza sativa))
45: Plant response rating, Flood, Ducksalad [9] | Plant response rating, Ducksalad [9, 17] | Plant response rating, Flood, Sedge, Umbrella [10]
20: Plant response rating, Foxtail, Giant [2, 14] | Plant response rating, Ducksalad [9, 15] | Plant response rating, Sedge, Umbrella [10, 15]
100: Plant response rating, Morningglory [4, 12] | Plant response rating, Pigweed [5, 12] | Velvetleaf plant response rating [6, 11] | Plant response rating, Velvetleaf [6, 12] | Plant response rating, Velvetleaf [6, 14]
60: Plant response rating, Barnyardgrass [1, 12] | Plant response rating, Crabgrass, Large [3, 12]
90: Plant response rating, Crabgrass, Large [3, 14]
30: Crabgrass, Large plant response rating [3, 11] | Plant response rating, Sedge, Umbrella [10, 16]
35: Plant response rating, Ducksalad [9, 16]
10: Barnyardgrass plant response rating [1, 11] | Foxtail, Giant plant response rating [2, 11] | Plant response rating, Crabgrass, Large [3, 13]
70: Plant response rating, Barnyardgrass [1, 14] | Plant response rating, Morningglory [4, 14] | Plant response rating, Pigweed [5, 14]

CSc1ncc(C(=O)C2=C(O)CCCC2=O)c(=O)n1-c1ccccc1 [Compound 30]
10: Barnyardgrass plant response rating [1, 11] | Foxtail, Giant plant response rating [2, 11] | Plant response rating, Foxtail, Giant [2, 14]
40: Plant response rating, Barnyardgrass [1, 14] | Plant response rating, Foxtail, Giant [2, 12]
0: Plant response rating, Barnyardgrass [1, 13] | Corn plant response rating (corn (Zea mays); [11]) | Plant response rating, Corn (corn (Zea mays); [12]) | Plant response rating, Corn (corn (Zea mays); [13]) | Plant response rating, Corn (corn (Zea mays); [14]) | Plant response rating, Foxtail, Giant [2, 13] | Plant response rating, Crabgrass, Large [3, 13] | Plant response rating, Morningglory [4, 13] | Plant response rating, Pigweed [5, 13] | Wheat plant response rating [7, 11] | Plant response rating, Wheat [7, 12] | Plant response rating, Wheat [7, 13] | Plant response rating, Wheat [7, 14] | Plant response rating, Flood, Barnyardgrass [8] | Plant response rating, Barnyardgrass [8, 16] | Plant response rating, Flood, Rice (rice (Oryza sativa)) | Plant response rating, Rice (rice (Oryza sativa); [16])
60: Plant response rating, Crabgrass, Large [3, 12] | Plant response rating, Crabgrass, Large [3, 14] | Plant response rating, Morningglory [4, 14]
80: Plant response rating, Pigweed [5, 12] | Plant response rating, Pigweed [5, 14]
70: Pigweed plant response rating [5, 11] | Plant response rating, Velvetleaf [6, 14]
50: Plant response rating, Morningglory [4, 12] | Plant response rating, Flood, Ducksalad [9] | Plant response rating, Flood, Sedge, Umbrella [10]
20: Plant response rating, Velvetleaf [6, 13] | Plant response rating, Ducksalad [9, 16] | Plant response rating, Sedge, Umbrella [10, 16]
100: Velvetleaf plant response rating [6, 11]
30: Plant response rating, Barnyardgrass [1, 12] | Crabgrass, Large plant response rating [3, 11] | Morningglory plant response rating [4, 11]
